Measurements: patent US8580769B2, “Treatment of obesity, metabolic syndrome, and diabetes with protein kinase C inhibitors” (The United States of America as represented by the …, priority 2011, dated 2013)

Tests used:
[1] = test system: liver of Het-MλKO mice; assay: hepatic mRNA and nuclear NFκB levels in Het-MλKO mice; format: in vivo, mouse; conditions: for hepatic ACC mRNA / hepatic FAS mRNA: 7-day treatment s.c. (ATM 60 mg/kg; ICAPP 0.4 mg/kg); for hepatic G6 Pase expression / hepatic PEPCK expression / hepatic SREBP-1c mRNA: s.c. once daily (ATM 60 mg/kg; ICAPP 0.4 mg/kg; ICAP 0.5 mg/kg)
From the text: (§1) In Vivo Mouse Studies: Male wild type (WT) and heterozygous muscle-specific PKC-λ knockout (Het-MλKO) mice were generated as described (Farese et al., J. Clin. Invest. 117:2289-2301, 2007) and used at 6-12 months of age, when the O/MS/T2DM phenotype in MλKO mice is well-developed. Mice were housed in a temperature-controlled environment with alternating 12-hour light and dark cycles, and fed ad libitum with standard chow (Harlan Teklad 20/18 with 5% fat, (10% of calories from fat)). All experimental procedures in mice were approved by the Institutional Animal Care and Use Committees of the Roskamp Institute and the University of South Florida College of Medicine, and the James A. Haley Veterans Administration Medical Center Research and Development Committee, Tampa, Fla.
(§2) (ICAPP; prepared by Southern Research, Birmingham, Ala.) at 0.4 mg/kg body weight. On the morning of the eighth day of inhibitor treatment, mice were injected intraperitoneally (IP) with 0.9% saline or saline containing 1 U insulin/kg body weight 15 minutes before sacrifice, an optimal time for studies of insulin stimulation of aPKC and Akt in liver, muscle and adipose tissues (Standaert et al., J. Biol. Chem. 279:24929-24934, 2004; Sajan et al., J. Lipid Res. 50:1133-1145, 2009; Sajan et al., Diabetologia 52:1197-1207, 2009; Farese et al., J. Clin. Invest. 117:2289-2301, 2007). After killing, blood, liver, quadriceps muscle and abdominal adipose tissues were rapidly removed and homogenized in buffer with a POLYTRON® homogenizer.
(§3) mRNA Measurements: As previously described (Sajan et al., J. Lipid Res. 50:1133-1145, 2009; Sajan et al., Diabetologia 52:1197-1207, 2009; Farese et al., J. Clin. Invest. 117:2289-2301, 2007), tissues were added to TRIZOL® reagent (Invitrogen) and RNA was extracted and purified with the RNEASY® Mini-Kit (Qiagen; Valencia, Calif.) and RNAase-free DNAase set (Qiagen) as per kit instructions, quantified by measuring A260/A280, further checked for purity by electrophoresis on 1.2% agarose gels, and mRNA quantified by quantitative real-time reverse transcriptase-polymerase chain reaction (RT-PCR). Reverse transcription was accomplished with TAQMAN® reverse transcription reagent from Applied Biosystems (Foster City, Calif., USA). mRNAs were measured with a SYBR® Green kit (Applied Biosystems) using the nucleotide primers shown in Table 1.
Nuclear Preparations: As previously described (Sajan et al., J. Lipid Res. 50:1133-1145, 2009; Sajan et al., Diabetologia 52:1197-1207, 2009; Farese et al., J. Clin. Invest. 117:2289-2301, 2007), liver nuclei were prepared with NE-PER® Nuclear and Cytoplasmic Extraction Reagents (Pierce Biotechnology/Thermo Scientific, Waltham, Mass.; Cat. No. 78833) Levels of the active p65/RelA subunit of NFκB were measured in these nuclear preparations.

[2] = test system: human hepatocytes; assay: mRNA expression of lipogenic, inflammatory and glucogenic markers in human hepatocytes (RT-PCR); format: cell-based; conditions: for expression of G6 Pase / expression of PEPCK: hepatocytes of non-diabetic and T2DM humans, inhibitor alone or with insulin; for expression of ACC / expression of FAS / expression of IL-1β / expression of SREBP-1c / expression of TNF-α: hepatocytes of non-diabetic and/or T2DM humans
Experimental: After thawing, the hepatocytes were distributed (approximately 10^6 cells per 100 mm plate) and incubated approximately 16 hours overnight in Dulbecco's minimal essential medium containing 5% fetal calf serum, 100 units/ml sodium-penicillin, 100 μg/ml streptomycin-sulfate, 1 μM insulin and 2 μM dexamethasone. After washing, cells were incubated first for 2 hours in William's E medium (Sigma-Aldrich, St. Louis, Mo., catalog no. W1878) containing GLUTAMAX™ (Gibco/Invitrogen, Carlsbad, Calif.), 100 units/ml sodium-penicillin, 100 μg/ml streptomycin-sulfate, 10 μM insulin, 100 nM dexamethasone, and then for 2 hours in William's E medium containing 100 units/ml sodium penicillin, 100 μg/ml streptomycin-sulfate, 100 nM dexamethasone, 0.25 mg/ml transferrin, 0.25 μg/ml sodium selenite and 10 μM insulin. Cells were then washed and incubated for 3 hours in the same medium, but lacking insulin. Where indicated, an aPKC inhibitor was then added and incubation was continued for 30 min, after which, cells were treated either for 15 min with or without 100 nM insulin for acute signaling studies, […] After incubation, cells were sonicated in homogenizing buffer.
as §3

[3] = molecular target: T1, Akt2 (Mus musculus, UniProt Q60823); assay: tissue Akt activity in Het-MλKO mice; format: in vivo; conditions: for Akt activation in adipose tissue / Akt activation in muscle: 7-day treatment s.c. (ATM 60 mg/kg; ICAPP 0.4 mg/kg)
T1 construct: from tissue; host or cells: mouse liver, quadriceps muscle and abdominal adipose tissue
T1 sequence (Q60823 whole entry): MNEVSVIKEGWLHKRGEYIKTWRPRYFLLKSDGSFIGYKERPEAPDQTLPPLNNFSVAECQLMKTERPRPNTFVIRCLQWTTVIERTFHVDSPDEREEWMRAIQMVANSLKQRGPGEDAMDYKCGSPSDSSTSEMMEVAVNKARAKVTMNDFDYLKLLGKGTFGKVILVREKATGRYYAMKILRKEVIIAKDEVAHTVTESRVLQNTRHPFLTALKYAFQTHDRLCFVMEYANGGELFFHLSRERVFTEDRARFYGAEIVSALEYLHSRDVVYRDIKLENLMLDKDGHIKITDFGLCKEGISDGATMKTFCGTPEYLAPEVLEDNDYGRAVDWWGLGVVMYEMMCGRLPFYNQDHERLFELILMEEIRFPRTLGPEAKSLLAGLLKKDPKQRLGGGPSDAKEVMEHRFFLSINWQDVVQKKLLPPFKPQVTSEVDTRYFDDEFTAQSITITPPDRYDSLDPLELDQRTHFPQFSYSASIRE
From the text: as §1, §2
Tissue and Immunoprecipitate Preparations: As previously described (Standaert et al., J. Biol. Chem. 279:24929-24934, 2004; Sajan et al., J. Lipid Res. 50:1133-1145, 2009; Sajan et al., Diabetologia 52:1197-1207, 2009; Farese et al., J. Clin. Invest. 117:2289-2301, 2007) hepatocytes and tissues from in vivo experiments were homogenized in ice-cold buffer containing 0.25 M sucrose, 20 mM Tris/HCl (pH 7.5), 2 mM EGTA, 2 mM EDTA, 1 mM phenylmethylsulfonyl fluoride (PMSF), 20 μg/ml leupeptin, 10 μg/ml aprotinin, 2 mM Na4P2O7, 2 mM Na3VO4, 2 mM NaF, and 1 μM microcystin. After centrifugation for 10 minutes at 700×g to remove unbroken cells, debris, nuclei, and floating fat, cell lysates were stored at −70° C. After addition of 1% TRITON® X-100, 0.6% Nonidet and 150 mM NaCl, lysates were cleared of insoluble materials by low-speed centrifugation and subsequently immunoprecipitated with antibodies that target: (a) aPKCs (rabbit polyclonal antiserum from Santa Cruz Biotechnologies (Santa Cruz, Calif.) that recognizes C-termini of both PKC-λ and PKC-ζ); and (b) Akt2 (Upstate Cell Signaling/Millipore, Billerica, Mass.). Immunoprecipitates were collected on Sepharose-AG beads (Santa Cruz Biotechnologies).
Akt2 Assay: Akt2 enzyme activity was measured with a kit obtained from Upstate Cell Signaling, as described (Standaert et al., J. Biol. Chem. 279:24929-24934, 2004; Sajan et al., J. Lipid Res. 50:1133-1145, 2009; Sajan et al., Diabetologia 52:1197-1207, 2009; Farese et al., J. Clin. Invest. 117:2289-2301, 2007). In brief, Akt2 was immunoprecipitated from lysates with rabbit polyclonal antibodies, collected on Sepharose-AG beads, and incubated as per kit directions. Akt1/2 activation was also assessed by immunoblotting for phosphorylation of serine-473.

[4] = Het-MλKO mice, ATM 60 mg/kg/day s.c., 7 days
[5] = liver of ICAP-treated Mλ-Het KO mice, relative to wild type = 1
[6] = non-diabetic human hepatocytes, 6 hours, 100 nM insulin, 100 nM ICAP

| SMILES | hepatic ACC mRNA ([1]; Het-MλKO mice) | hepatic FAS mRNA ([1]; Het-MλKO mice) | hepatic G6 Pase expression ([1]; Het-MλKO mice) | hepatic PEPCK expression ([1]; Het-MλKO mice) | hepatic SREBP-1c mRNA ([1]; Het-MλKO mice) | expression of G6 Pase [2] | expression of PEPCK [2] | expression of ACC [2] | expression of FAS [2] | expression of IL-1β [2] | expression of SREBP-1c [2] | expression of TNF-α [2] | Akt activation in adipose tissue ([3]; Het-MλKO mice) | Akt activation in muscle ([3]; Het-MλKO mice) | also measured |
| --- | --- | --- | --- | --- | --- | --- | --- | --- | --- | --- | --- | --- | --- | --- | --- |
| O=C([O-])CC([S][Au])C(=O)[O-] (stereo not drawn) [ATM, aurothiomalate, reference compound] | decreased, virtually to normal | decreased, virtually to normal | diminished | diminished | decreased, virtually to normal | insulin-like, or enhanced insulin, effects | insulin-like, or enhanced insulin, effects | diminished | diminished | diminished | diminished | diminished | increased or trended upward | increased or trended upward | hepatic active nuclear NFκB/p65/RelA levels [1, 4]: decreased, virtually to normal; hepatic expression of IL-1β [1, 4]: normalized; hepatic expression of TNF-α [1, 4]: normalized; Akt activation/activity in liver ([3]; Het-MλKO mice, s.c. once daily (ATM 60 mg/kg; ICAPP 0.4 mg/kg; ICAP 0.5 mg/kg)): increased or trended upward |
| NC(=O)c1ncn([C@@H]2C[C@H](CO)[C@@H](O)[C@H]2O)c1N [ICAP, 1H-imidazole-4-carboxamide 5-amino-1-[2,3-dihydroxy-4-[hydroxymethyl]cyclopentyl]-[1R-(1α,2β,3β,4α)]] | – | – | decreased | decreased | decreased | – | – | – | – | – | – | – | – | – | relative mRNA level, G6Pase [1, 5]: 1.42; relative mRNA level, PEPCK [1, 5]: 0.52; relative mRNA level, SREBP-1c [1, 5]: 1.14; effects on insulin-provoked aPKC activity and mRNA levels in hepatocytes of diabetic humans ([2]; hepatocytes of diabetic humans): Comparable results; insulin-provoked increase in ACC mRNA [2, 6]: inhibited; insulin-provoked increase in FAS mRNA [2, 6]: inhibited; insulin-provoked increase in IL-1β mRNA [2, 6]: inhibited; insulin-provoked increase in SREBP-1c mRNA [2, 6]: inhibited; insulin-provoked increase in TNF-α mRNA [2, 6]: inhibited; Hepatic Akt activity ([3]; ICAP-treated Mλ-Het KO mice (n = 12), 0.5 mg/kg body weight/day x 8 days s.c., mean ± SEM): 1151 ± 226 cpm/immunoppt |
| NC(=O)c1ncn([C@@H]2C[C@H](COP(=O)(O)O)[C@@H](O)[C@H]2O)c1N [ICAPP, 1H-imidazole-4-carboxamide, 5-amino-1-[2,3-dihydroxy-4-[(phosphonooxy)methyl]cyclopentyl]-[1R-(1α,2β,3β,4α)]] | diminished to wild type levels | diminished to wild type levels | trended downward to or toward control levels | trended downward to or toward control levels | diminished to wild type levels | insulin-like, or enhanced insulin, effects | insulin-like, or enhanced insulin, effects | diminished | diminished | diminished | diminished | diminished | increased significantly or trended upward | increased significantly or trended upward | – |
